According to patent publication US20010010818A1, “Methods and formulations for reducing circulating antibodies” (priority 1998, published 2001):

Experiments:
[1] = test system: anti-αGal Ig; experiment: Removal of anti-αGal Ig from serum by αGal epitope on resin (Sepharose), measured by FACS; format: binding, rhesus monkey; conditions: epitope on resin (coupled to Sepharose)
Procedure: (§1) Antibodies. Blood was drawn from healthy normal volunteers. Plasma was separated by centrifugation and allowed to clot. Fibrin was removed and plasma was used immediately or stored in aliquots at −70° C. Rhesus monkey serum (California Regional Primate Research Center, Davis, Calif.) was obtained from blood drawn into vacutainer tubes and allowed to clot. After serum was separated by centrifugation, it was pooled, aliquoted and stored at −20° C. or −70° C. In some experiments, sera was heat-inactivated at 56° C. for 30 minutes to destroy complement hemolytic activity. Antibodies to the αGal epitope were affinity purified on an αGal-Sepharose column, which was prepared by coupling αGal-SH to maleimide-Sepharose (Pierce) through Michael addition chemistry at 10 mg/mL resin. Up to 20 mL pooled NHS […] was applied to a 2 mL volume of packed αGal-Sepharose. After the flow through was collected, the column was washed with 10-20 column volumes or until A280 reached baseline values and eluted with 0.1 M triethanolamine, pH 11.5 into tubes containing 1 M Tris, pH 8.0. The column was immediately washed with 10-20 volumes of phosphate-buffered saline (PBS). Fractions were assessed for protein concentration by Bradford assay. Peak fractions were pooled and dialyzed against PBS. […]

[2] = test system: anti-αGal Ig; experiment: as above; format: binding, human; conditions: epitope on resin (coupled to Sepharose)
Procedure: as §1

OC[C@H]1O[C@H](O[C@H]2[C@@H](O)[C@@H](CO)O[C@@H](OCCOCCOCCS)[C@@H]2O)[C@H](O)[C@@H](O)[C@H]1O [αGal epitope, 2-[2-(2-thioethoxy)ethoxy]ethyl 3-O-(α-D-galactopyranosyl)-β-D-galactopyranoside]
removal of anti-αGal Ig from normal rhesus monkey serum [1]: > 95%
removal of anti-αGal Ig from human serum [2]: > 95%
